Earlier results, collected in patent US20130142872A1, “EMP2: Ethyl-Methyl, di Methyl, tri Methyl Pyruvate Acid Esters: A Tool for Regulating HbA1c and a Riboswitch Activator” (priority 2011, published 2013).

How the values were obtained:
[1] = test system: Cultured mouse astrocytes; conditions: for cell death / translocation of the apoptosis-inducing factor from mitochondria to nuclei: after PARP-1 activation
[2] = test system: primary astrocyte cultures; conditions: 10 mM extracellular NAD(+) after MNNG exposure
[3] = test system: Mouse neuron and astrocyte cultures; conditions: for cell death: hydrogen peroxide, NMDA or MNNG exposure; for NAD(+) depletion: PARP1 activation by MNNG or H(2)O(2); for poly(ADP-ribose) accumulation: during MNNG exposure, immunostaining
B-islet pancreatic cell = conditions: as compared to its glucose control
[4] = clinically prescribed / clinically relevant doses
[5] = wide variety of preclinical models of critical illnesses
[6] = after coronary ischemia and reperfusion
THP-1 monocytic cells = conditions: PMA-stimulated THP-1 cells

In the case of cyclosporin A, the cell death [1] is listed as “blocked” and the “translocation of the apoptosis-inducing factor from mitochondria to nuclei” value [1] is listed as “blocked”.
In the case of NC(=O)c1ccc[n+]([C@@H]2O[C@H](COP(=O)([O-])OP(=O)(O)OC[C@H]3O[C@@H](n4cnc5c(N)ncnc54)[C@H](O)[C@@H]3O)[C@@H](O)[C@H]2O)c1 [NAD(+)], the mitochondrial membrane potential ([1]; NAD(+) restored to near-normal levels after PARP-1 activation) is given as “enabled the recovery”, the cell death [1] is given as “blocked” and the “translocation of the apoptosis-inducing factor from mitochondria to nuclei” value [1] is given as “blocked”. The cell death [2] was “prevented” and the glycolytic capacity [2] was “completely restored”.
For nobotanin B, the cell death [3] is given as “equally reduced”.
In the case of COC(=O)C(C)=O [Methyl pyruvate], the “increase in insulin production” value (B-islet pancreatic cell) is listed as “six-fold” and the “safety in human volunteers” value [4] is listed as “safe”.
In the case of CCOC(=O)C(C)=O [Ethyl pyruvate, ethyl pyruvate], the “safety in human volunteers” value [4] is given as “safe”, the “survival and organ dysfunction” value [5] is given as “improve survival and ameliorate organ dysfunction” and the cardiac function [6] is given as “improve cardiac function”.
For NC(=O)c1ccccc1 [benzamide], the “NAD(+) depletion” value [3] is given as “prevented”, the “poly(ADP-ribose) accumulation” value [3] is given as “decrease” and the cell death [3] is given as “markedly reduced”.
In the case of CCCCC/C=C/C=C1/C(=O)C=CC1C/C=C\CCCC(=O)O (stereo not drawn) [PGJ2, 15-deoxy-Delta(12, 14)-PGJ2], the “IL-1, IL-6 and TNFalpha (pro-inflammatory cytokine) secretion” value (THP-1 monocytic cells) is listed as “inhibitory effect” and the IL-1Ra production (THP-1 monocytic cells) is listed as “increasing”.
In the case of O=C(OC[C@H]1O[C@@H](OC(=O)c2cc(O)c(O)c(OC(=O)c3cc(O)c(O)c(O)c3)c2)[C@H](OC(=O)c2cc(O)c(O)c(OC(=O)c3cc(O)c(O)c(O)c3)c2)[C@@H](OC(=O)c2cc(O)c(O)c(OC(=O)c3cc(O)c(O)c(O)c3)c2)[C@@H]1OC(=O)c1cc(O)c(O)c(OC(=O)c2cc(O)c(O)c(O)c2)c1)c1cc(O)c(O)c(OC(=O)c2cc(O)c(O)c(O)c2)c1 [gallotannin], the “NAD(+) depletion” value [3] is listed as “prevented”, the “poly(ADP-ribose) accumulation” value [3] is listed as “increase” and the cell death [3] is listed as “equally reduced”.
